The values that follow come from patent US20240351985A1, “NOVEL COMPOUND AND USE OF SAID COMPOUND” (APHEA.BIO NV, priority 2021, published 2024).

One assay concerns F. graminearum spores. The assay is classed as cell-based, Fusarium graminearum. Particulars: for Halo Diameter / Opacity Grade: 24 hours.
A further assay relates to Fusarium graminearum. Put plainly: microbe, parasite or virus in culture. Format: cell-based. The settings on record: 22 h.
The test system of another assay is Puccinia striiformis. Put plainly: Dose-response liquid-based assay against spores of Puccinia striiformis. The settings on record: 48 h. Format: cell-based.
A further assay deals with Zymoseptoria tritici. Put plainly: microbe, parasite or virus in culture. Particulars: 120 h, incubation 5 d. The assay is classed as cell-based.
Assay [1] concerns Fusarium graminearum, Puccinia striiformis and Zymoseptoria tritici. As to the kind of experiment: organism not typed. The assay is classed as cell-based.
Where [2] appears, read: read-out: Absorbance (600 nm): AC50 value, Estimation.
Setting [3] is: read-out: Absorbance (600 nm): AC50 value, Range.
The mark [4] stands for this setting: read-out: Fluorescence of resazurin dye (excitation 570 nm, emission 615 nm): AC50 value, Estimation.
[5] abbreviates: read-out: Fluorescence of resazurin dye (excitation 570 nm, emission 615 nm): AC50 value, Range.

Converted amounts (≈) assume the structure as drawn. “And” between values parts separate entries of the source, which are not always exact repeats. Equal values may be shown once. Read-outs that look alike come from different tables or passages of the source.

Take `C[C@@H]1[C@H](O)[C@@H](C)/C=C/C=C/C=C/C=C/C=C/C=C/C=C/[C@H](O[C@@H]2O[C@H](C)[C@@H](O)[C@H](N)[C@@H]2O)C[C@@H]2O[C@](O)(C[C@@H](O)C[C@@H](O)[C@H](O)CC[C@@H](O)C[C@@H](O)CC(=O)O[C@H]1C)C[C@H](O)[C@H]2C(=O)O` [Amphotericin B, reference compound]: the “Halo Diameter” value with F. graminearum spores (10 μL pipetted, 0.125 mg/mL) is 9.3 mm; in the assay with F. graminearum spores (10 μL pipetted, 0.15625 mg/mL), 7.1 mm; in the assay with F. graminearum spores (10 μL pipetted, 0.250 mg/mL) it was 9.2 mm and 9 mm and 9.3 mm and 8.7 mm; with F. graminearum spores (10 μL pipetted, 0.3125 mg/mL) it was 7.7 mm; in the assay on F. graminearum spores (10 μL pipetted, 0.625 mg/mL), 9.1 mm. Besides, the “Opacity Grade” value in the assay on F. graminearum spores (10 μL pipetted, 0.125 mg/mL) is “B (‘B’ means 60-80% inhibition of the pathogen)”; in the assay with F. graminearum spores (10 μL pipetted, 0.15625 mg/mL), “C (‘C’ means 40-60% inhibition of the pathogen)”; in the assay with F. graminearum spores (10 μL pipetted, 0.250 mg/mL), “A (‘A’ means 80-100% inhibition of the pathogen)”; with F. graminearum spores (10 μL pipetted, 0.3125 mg/mL), “C (‘C’ means 40-60% inhibition of the pathogen)”; in the assay on F. graminearum spores (10 μL pipetted, 0.625 mg/mL) it was “B (‘B’ means 60-80% inhibition of the pathogen)”.

Regarding `C=C/C(C)=C/[C@@H](C)C(=O)CC(CC(CC(N)=O)CC(=O)O)SC` (stereo partly shown) [C17H27NO4S], the “Halo Diameter” value in the assay on F. graminearum spores (2 μL pipetted, 0.125 mg/mL) is 4.4 mm and 4.7 mm and 4.3 mm; with F. graminearum spores (2 μL pipetted, 0.250 mg/mL), 5.5 mm and 5.6 mm; in the assay on F. graminearum spores (2 μL pipetted, 0.500 mg/mL), 6.7 mm and 7.2 mm and 7.1 mm; in the assay with F. graminearum spores (2 μL pipetted, 1 mg/mL), 8.3 mm and 8.2 mm; in the assay with F. graminearum spores (2 μL pipetted, 2 mg/mL), 9.1 mm and 9.3 mm; in the assay on F. graminearum spores (2 μL pipetted, 4 mg/mL), 9.5 mm and 9.2 mm and 9.6 mm. The “Halo Diameter” value in the assay with F. graminearum spores (2 μL pipetted, 8 mg/mL) is 9.8 mm and 9.2 mm and 9.7 mm. Moreover, the “Opacity Grade” value in the assay on F. graminearum spores (2 μL pipetted, 0.125 mg/mL) is given as “E (‘E’ means 0-20% inhibition of the pathogen)”; in the assay on F. graminearum spores (2 μL pipetted, 0.250 mg/mL), “D (‘D’ means 20-40% inhibition of the pathogen)”; in the assay with F. graminearum spores (2 μL pipetted, 0.500 mg/mL), “B (‘B’ means 60-80% inhibition of the pathogen)”; in the assay with F. graminearum spores (2 μL pipetted, 1 mg/mL), “A (‘A’ means 80-100% inhibition of the pathogen)”; with F. graminearum spores (2 μL pipetted, 2 mg/mL), “A (‘A’ means 80-100% inhibition of the pathogen)”; in the assay on F. graminearum spores (2 μL pipetted, 4 mg/mL) it was “A (‘A’ means 80-100% inhibition of the pathogen)”. The “Opacity Grade” value with F. graminearum spores (2 μL pipetted, 8 mg/mL) was “A (‘A’ means 80-100% inhibition of the pathogen)”. The “Activity against F. graminearum spores” value in the assay on F. graminearum spores (all concentrations tested (8 mg/mL to 125 μg/mL)) is “active”. Besides, the AC50 was 8.9 µg/mL (≈ 26.1 µM) in the assay with Fusarium graminearum (setting [2]); 7.54 to 10.5 µg/mL (≈ 22.1 to 30.7 µM) in the assay with Fusarium graminearum (setting [3]); 13.2 µg/mL (≈ 38.8 µM) in the assay on Fusarium graminearum (setting [4]); 11.8 to 14.8 µg/mL (≈ 34.6 to 43.5 µM) in the assay with Fusarium graminearum (setting [5]); 12.8 µg/mL (≈ 37.5 µM) in the assay on Puccinia striiformis (setting [4]); 11.7 to 14 µg/mL (≈ 34.1 to 41.1 µM) in the assay with Puccinia striiformis (setting [5]). Also, the AC50 is 16 µg/mL (≈ 46.9 µM) with Zymoseptoria tritici (setting [2]); 14.9 to 17.2 µg/mL (≈ 43.7 to 50.4 µM) with Zymoseptoria tritici (setting [3]); 15.9 µg/mL (≈ 46.6 µM) in the assay with Zymoseptoria tritici (setting [4]); 14.8 to 17.1 µg/mL (≈ 43.3 to 50 µM) in the assay with Zymoseptoria tritici (setting [5]); 7.54 to 17.2 µg/mL (≈ 22.1 to 50.4 µM) in assay [1] (read-out: Active concentrations (AC50 ranges) for hyphal growth in the wells); 11.7 to 17.1 µg/mL (≈ 34.1 to 50 µM) in assay [1] (read-out: Active concentrations (AC50 ranges) for metabolic activity).
